Assay results as given in US7179804B2, “Tachykinin receptor antagonists” (Eli Lilly and Company, priority 2002, dated 2007).

Compound	melting point [°C]
CC(C)(O)c1onc(-c2ccccc2Cl)c1C(=O)c1nnn(Cc2cc(C(F)(F)F)cc(C(F)(F)F)c2)c1N1CCOCC1 [Example 73]	188
CC(C)(O)c1onc(-c2ccccc2Cl)c1C(=O)c1nnn(Cc2cc(C(F)(F)F)cc(C(F)(F)F)c2)c1-c1cccnc1 [Example 79, [1-(3,5-bis-trifluoromethyl-benzyl)-5-pyridin-3-yl-1H-[1,2,3]triazol-4-yl]-[3-(2-chloro-phenyl)-5-(1-hydroxy-1-methyl-ethyl)-isoxazol-4-yl]-methanone]	105

Second part, the compound after the results:

melting point [°C]	Compound
145 to 146	CC(O)c1onc(-c2ccccc2Cl)c1C(=O)c1nnn(Cc2cc(C(F)(F)F)cc(C(F)(F)F)c2)c1N1CCOCC1 (centres unmarked) [Example 81, [1-(3,5-bis-trifluoromethyl-benzyl)-5-morpholin-4-yl-1H-[1,2,3]triazol-4-yl]-[3-(2-chloro-phenyl)-5-(1-hydroxy-ethyl)-isoxazol-4-yl]-methanone]
180	CC(C)(O)c1onc(-c2ccccc2Cl)c1C(=O)c1nnn(Cc2cc(F)cc(C(F)(F)F)c2)c1-c1cccnc1 [Example 211, [3-(2-chloro-phenyl)-5-(1-hydroxy-1-methyl-ethyl)-isoxazol-4-yl]-[1-(3-fluoro-5-trifluoromethyl-benzyl)-5-pyridin-3-yl-1H-[1,2,3]triazol-4-yl]-methanone]
148.8	O=C(c1nnn(Cc2cc(C(F)(F)F)cc(C(F)(F)F)c2)c1-n1ccnc1)c1c(CO)noc1-c1ccccc1Cl [Example 269, [1-(3,5-bistrifluoromethylbenzyl)-5-imidazol-1-yl-1H-[1,2,3]triazol-4-yl]-[5-(2-chlorophenyl)-3-hydroxymethyl-isoxazol-4-yl]-methanone]
